Test results as given in BindingDB's records for doi:10.1021/jm021108n (Ghent University, 2003).

Target: Thymidylate kinase (Homo sapiens) (UniProt P23919)
Experiment: In Vitro inhibition of […] (TMPKh)

SMILES	Ki
Cc1cn([C@H]2C[C@H](CO)[C@@H](CO)O2)c(=O)[nH]c1=O [1-(4,5-Bis-hydroxymethyl-tetrahydro-furan-2-yl)-5-methyl-1H-pyrimidine-2,4-dione]	420 µM
Cc1cn([C@@H]2O[C@H](CO)[C@@H](CN)[C@H]2O)c(=O)[nH]c1=O [1-(4-Aminomethyl-3-hydroxy-5-hydroxymethyl-tetrahydro-furan-2-yl)-5-methyl-1H-pyrimidine-2,4-dione]	110 µM
Cc1cn([C@H]2C[C@H](CN)[C@@H](CO)O2)c(=O)[nH]c1=O [1-(4-Aminomethyl-5-hydroxymethyl-tetrahydro-furan-2-yl)-5-methyl-1H-pyrimidine-2,4-dione]	220 µM
Cc1cn([C@H]2C[C@H](CN=[N+]=[N-])[C@@H](CO)O2)c(=O)[nH]c1=O [1-(4-Azidomethyl-5-hydroxymethyl-tetrahydro-furan-2-yl)-5-methyl-1H-pyrimidine-2,4-dione]	1040 µM
Cc1cn([C@H]2C[C@H](CF)[C@@H](CO)O2)c(=O)[nH]c1=O [1-(4-Fluoromethyl-5-hydroxymethyl-tetrahydro-furan-2-yl)-5-methyl-1H-pyrimidine-2,4-dione]	970 µM
Cc1cn([C@@H]2O[C@H](COP(=O)(O)O)[C@@H](CN)[C@H]2O)c(=O)[nH]c1=O [Phosphoric acid mono-[3-aminomethyl-4-hydroxy-5-(5-methyl-2,4-dioxo-3,4-dihydro-2H-pyrimidin-1-yl)-tetrahydro-furan-2-ylmethyl] ester]	280 µM
Cc1cn([C@H]2C[C@H](CN)[C@@H](COP(=O)(O)O)O2)c(=O)[nH]c1=O [Phosphoric acid mono-[3-aminomethyl-5-(5-methyl-2,4-dioxo-3,4-dihydro-2H-pyrimidin-1-yl)-tetrahydro-furan-2-ylmethyl] ester]	4.7 µM
Cc1cn([C@H]2C[C@H](CN=[N+]=[N-])[C@@H](COP(=O)(O)O)O2)c(=O)[nH]c1=O [Phosphoric acid mono-[3-azidomethyl-5-(5-methyl-2,4-dioxo-3,4-dihydro-2H-pyrimidin-1-yl)-tetrahydro-furan-2-ylmethyl] ester]	32 µM
Cc1cn([C@H]2C[C@H](CF)[C@@H](COP(=O)(O)O)O2)c(=O)[nH]c1=O [Phosphoric acid mono-[3-fluoromethyl-5-(5-methyl-2,4-dioxo-3,4-dihydro-2H-pyrimidin-1-yl)-tetrahydro-furan-2-ylmethyl] ester]	40 µM
Cc1cn([C@H]2C[C@H](CO)[C@@H](COP(=O)(O)O)O2)c(=O)[nH]c1=O [Phosphoric acid mono-[3-hydroxymethyl-5-(5-methyl-2,4-dioxo-3,4-dihydro-2H-pyrimidin-1-yl)-tetrahydro-furan-2-ylmethyl] ester]	43.5 µM
